In ChEMBL document CHEMBL1151061, “Synthesis and inhibitory effects of bivalent sialyl lewis X analogs at preventing cell adhesion” (Bioorg Med Chem Lett, 1997):

Molecular target: T1, E-selectin (Homo sapiens, UniProt P16581)
T1 sequence (P16581 whole entry): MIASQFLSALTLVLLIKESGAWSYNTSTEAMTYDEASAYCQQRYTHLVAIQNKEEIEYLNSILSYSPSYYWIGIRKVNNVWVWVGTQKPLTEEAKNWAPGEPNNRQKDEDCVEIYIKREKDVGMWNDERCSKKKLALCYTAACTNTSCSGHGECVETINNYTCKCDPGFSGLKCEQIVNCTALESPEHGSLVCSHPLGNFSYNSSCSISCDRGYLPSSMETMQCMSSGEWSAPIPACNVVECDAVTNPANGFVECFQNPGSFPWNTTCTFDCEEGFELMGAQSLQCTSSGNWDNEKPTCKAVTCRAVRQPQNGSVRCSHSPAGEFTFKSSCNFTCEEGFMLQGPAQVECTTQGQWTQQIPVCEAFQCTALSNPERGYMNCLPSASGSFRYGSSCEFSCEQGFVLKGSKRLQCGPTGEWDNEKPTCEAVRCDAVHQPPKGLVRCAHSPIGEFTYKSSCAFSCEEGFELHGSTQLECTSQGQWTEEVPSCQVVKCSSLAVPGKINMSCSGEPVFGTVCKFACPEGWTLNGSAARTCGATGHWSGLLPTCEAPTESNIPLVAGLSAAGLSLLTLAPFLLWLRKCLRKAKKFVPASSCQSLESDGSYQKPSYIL
Assay: Compound was evaluated for its inhibitory activity against adhesion of HL-60(human promyelocytic leukemia cells) to recombinant human soluble E-selectin (rhsE).

Row | IC50 | Structure (SMILES)
1 | 32 µM | CO[C@H]1O[C@@H](O[C@H]2[C@H](O[C@@H]3O[C@@H](C)[C@@H](O)[C@@H](O)[C@@H]3O)[C@@H](NC(=O)c3ccc4ccccc4c3)[C@H](OCCCc3cccc(CCCO[C@@H]4O[C@H](CO)[C@@H](O[C@@H]5O[C@H](OC)[C@H](O)[C@H](O[C@]6(C(=O)O)C[C@H](O)[C@@H](NC(C)=O)[C@H]([C@H](O)[C@H](O)CO)O6)[C@H]5O)[C@H](O[C@@H]5O[C@@H](C)[C@@H](O)[C@@H](O)[C@@H]5O)[C@H]4NC(=O)c4ccc5ccccc5c4)c3)O[C@@H]2CO)[C@H](O)[C@@H](O[C@]2(C(=O)O)C[C@H](O)[C@@H](NC(C)=O)[C@H]([C@H](O)[C@H](O)CO)O2)[C@H]1O
2 | 41 µM | COC(=O)N[C@@H]1C(O)C(OC2C(O)[C@H](O[C@@H]3C(CO)O[C@@H](OCCCO[C@@H]4CCC[C@H](OCCCO[C@@H]5OC(CO)[C@@H](O[C@@H]6OC(CO)[C@H](O)C(OC7C(O)[C@@H](NC(=O)OC)C([C@H](O)[C@H](O)CO)O[C@H]7C(=O)O)C6O)C(O[C@@H]6OC(C)[C@H](O)C(O)C6O)C5Nc5ccc6ccccc6c5)C4)C(Nc4ccc5ccccc5c4)C3O[C@@H]3OC(C)[C@H](O)C(O)C3O)OC(CO)[C@@H]2O)[C@H](C(=O)O)OC1[C@H](O)[C@H](O)CO (stereo partly drawn)
3 | 49 µM | COC(=O)N[C@@H]1C(O)C(OC2C(O)[C@H](O[C@@H]3C(CO)O[C@@H](OCCCO[C@H]4CCC[C@H](OCCCO[C@@H]5OC(CO)[C@@H](O[C@@H]6OC(CO)[C@H](O)C(OC7C(O)[C@@H](NC(=O)OC)C([C@H](O)[C@H](O)CO)O[C@H]7C(=O)O)C6O)C(O[C@@H]6OC(C)[C@H](O)C(O)C6O)C5Nc5ccc6ccccc6c5)C4)C(Nc4ccc5ccccc5c4)C3O[C@@H]3OC(C)[C@H](O)C(O)C3O)OC(CO)[C@@H]2O)[C@H](C(=O)O)OC1[C@H](O)[C@H](O)CO (stereo partly drawn)
4 | 60 µM | CC(=O)N[C@@H]1[C@@H]([C@H](O)[C@H](O)CO)O[C@](O[C@H]2[C@@H](O)[C@@H](O[C@@H]3[C@@H](O[C@H]4O[C@H](C)[C@H](O)[C@@H](O)[C@H]4O)[C@@H](NC(=O)c4ccc5ccccc5c4)[C@@H](OCCc4cccc(CCO[C@@H]5O[C@@H](CO)[C@@H](O[C@@H]6O[C@@H](CO)[C@H](O)[C@H](O[C@]7(C(=O)O)C[C@@H](O)[C@@H](NC(C)=O)[C@H]([C@H](O)[C@H](O)CO)O7)[C@@H]6O)[C@H](O[C@@H]6O[C@@H](C)[C@@H](O)[C@H](O)[C@@H]6O)[C@@H]5NC(=O)c5ccc6ccccc6c5)c4)O[C@@H]3CO)O[C@H](CO)[C@H]2O)(C(=O)O)C[C@@H]1O
5 | 37 µM | CC(=O)N[C@@H]1[C@@H]([C@H](O)[C@H](O)CO)O[C@](O[C@H]2[C@@H](O)[C@@H](O[C@@H]3[C@@H](O[C@H]4O[C@H](C)[C@H](O)[C@@H](O)[C@H]4O)[C@@H](NC(=O)c4ccc5ccccc5c4)[C@@H](OCCCOc4cccc(OCCCO[C@@H]5O[C@@H](CO)[C@@H](O[C@@H]6O[C@@H](CO)[C@H](O)[C@H](O[C@]7(C(=O)O)C[C@@H](O)[C@@H](NC(C)=O)[C@H]([C@H](O)[C@H](O)CO)O7)[C@@H]6O)[C@H](O[C@@H]6O[C@@H](C)[C@@H](O)[C@H](O)[C@@H]6O)[C@@H]5NC(=O)c5ccc6ccccc6c5)c4)O[C@@H]3CO)O[C@H](CO)[C@H]2O)(C(=O)O)C[C@@H]1O
6 | 1500 µM | CCO[C@@H]1O[C@@H](CO)[C@@H](O[C@@H]2O[C@@H](CO)[C@H](O)[C@H](O[C@]3(C(=O)O)C[C@@H](O)[C@@H](NC(C)=O)[C@H]([C@H](O)[C@H](O)CO)O3)[C@@H]2O)[C@H](O[C@@H]2O[C@@H](C)[C@@H](O)[C@H](O)[C@@H]2O)[C@@H]1NC(C)=O
7 | 30 µM | CC(=O)N[C@@H]1[C@@H]([C@H](O)[C@H](O)CO)O[C@](O[C@H]2[C@@H](O)[C@@H](O[C@@H]3[C@@H](O[C@H]4O[C@H](C)[C@H](O)[C@@H](O)[C@H]4O)[C@@H](NC(=O)c4ccc5ccccc5c4)[C@@H](OCc4cccc(CO[C@@H]5O[C@@H](CO)[C@@H](O[C@@H]6O[C@@H](CO)[C@H](O)[C@H](O[C@]7(C(=O)O)C[C@@H](O)[C@@H](NC(C)=O)[C@H]([C@H](O)[C@H](O)CO)O7)[C@@H]6O)[C@H](O[C@@H]6O[C@@H](C)[C@@H](O)[C@H](O)[C@@H]6O)[C@@H]5NC(=O)c5ccc6ccccc6c5)c4)O[C@@H]3CO)O[C@H](CO)[C@H]2O)(C(=O)O)C[C@@H]1O
8 | 200 µM | CC(=O)N[C@H]1[C@H]([C@H](O)[C@H](O)CO)O[C@@](O[C@@H]2[C@H](O)[C@H](O[C@H]3[C@H](O[C@@H]4O[C@@H](C)[C@@H](O)[C@H](O)[C@@H]4O)[C@H](NC(=O)c4ccc5ccccc5c4)[C@H](OCCCc4cccc(CCCO)c4)O[C@H]3CO)O[C@@H](CO)[C@@H]2O)(C(=O)O)C[C@H]1O
